US20250074911A1, “MACROCYCLIC BTK INHIBITORS” (Crossfire Oncology Holding B.V., priority 2021, published 2025)
Where “and” joins values, the source holds several entries; their conditions need not be identical. Equal entries are not always repeated.

How the values were obtained:
[1] = molecular target: full-length wt-BTK enzyme (Homo sapiens (Human), UniProt Q06187); test: Biochemical kinase assay wt-BTK (IMAP)
Outline: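 Compound and enzyme (final 1.2 nM) were pre-incubated for 1 h at RT, after which the reaction was started with 4 μM ATP plus 50 nM fluorescein-MBP substrate peptide. After 2 h in the dark, the IMAP progressive binding reagent stopped the reaction, and phosphorylation was read by fluorescence polarization.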

[2] = molecular target: full-length BTK C481S enzyme (Homo sapiens (Human), UniProt Q06187, C481S); test: Biochemical kinase assay BTK C481S (IMAP)
Chain of full-length BTK C481S enzyme (Q06187 whole entry C481S): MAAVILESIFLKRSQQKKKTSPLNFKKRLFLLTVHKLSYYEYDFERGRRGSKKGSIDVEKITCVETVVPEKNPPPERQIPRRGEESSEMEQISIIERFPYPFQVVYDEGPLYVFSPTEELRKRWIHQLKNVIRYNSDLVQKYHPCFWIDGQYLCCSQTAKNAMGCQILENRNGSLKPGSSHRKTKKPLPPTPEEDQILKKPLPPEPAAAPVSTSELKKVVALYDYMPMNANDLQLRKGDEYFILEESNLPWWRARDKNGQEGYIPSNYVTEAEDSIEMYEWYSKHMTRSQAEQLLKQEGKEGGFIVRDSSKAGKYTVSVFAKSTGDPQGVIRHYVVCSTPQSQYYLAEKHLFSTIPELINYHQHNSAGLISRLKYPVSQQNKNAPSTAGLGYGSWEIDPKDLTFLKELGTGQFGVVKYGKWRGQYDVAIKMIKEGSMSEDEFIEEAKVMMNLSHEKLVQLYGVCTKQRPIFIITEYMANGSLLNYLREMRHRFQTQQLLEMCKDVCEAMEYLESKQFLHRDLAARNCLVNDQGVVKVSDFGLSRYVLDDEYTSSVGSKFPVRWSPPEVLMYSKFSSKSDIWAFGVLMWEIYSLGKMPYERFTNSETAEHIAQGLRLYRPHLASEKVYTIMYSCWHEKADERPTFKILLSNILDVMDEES
Outline: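 IC50 values come from IMAP fluorescence polarization after quenching with progressive binding solution. The reaction ran 2 h at room temperature in the dark with 1.2 nM full-length C481S enzyme, 7 μM ATP and 50 nM fluorescein-labelled MBP-derived peptide, following a 1 h dark pre-incubation of compound with enzyme.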

[3] = test system: wt-REC-1 mantle cell lymphoma cells; test: Cell proliferation assay wt-REC-1 (ATPlite, 72 hours); type: cell-based; conditions: 72 h; read-out: IC50 wt-REC-1
Outline: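 Luminescent viability read over 72 h, start-of-incubation signal recorded separately to separate growth from cell death. Percentage growth referenced to compound-free 0.3% DMSO wells; IC50 from 4-parameter logistic fit.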

REC-1 T474I cell lines = test: Cell proliferation assay REC-1 BTK T474I knock-in cells (ATPlite, 72 hours); type: cell-based; conditions: Homo sapiens, Rec1; 72 hours; read-out: IC50 REC-1 T474I
Outline: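 REC-1 cells carrying CRISPR knock-in mutant BTK, single-cell cloned and sequence-confirmed, were exposed to compound for 72 h and read by ATPlite luminescence. Percentage growth was calculated against the signal at the start of incubation and against untreated 0.3% DMSO wells as maximum growth.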

wt-BTK = wt-BTK (Homo sapiens (Human), UniProt Q06187); test: Binding kinetics measurements (Surface Plasmon Resonance) on wt-BTK; conditions: for Tau (h) wt-BTK (Act): target residence time, SPR; for Kd: binding affinity by Surface Plasmon Resonance (SPR)
Chain of wt-BTK (Q06187 whole entry): as the sequence (Q06187 whole entry C481S) above, with S481C counted along it
Outline: (§1)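 Using streptavidin-captured kinase, binding was followed by SPR in 1% DMSO buffer at 22° C and 30 μl/min. Five consecutive compound injections spanned 3.16-316 nM, preceded by a blank run; data were double referenced before kinetic fitting.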

BTK C481S = BTK C481S (Homo sapiens (Human), UniProt Q06187, C481S); test: Binding kinetics measurements (Surface Plasmon Resonance) on BTK C481S; conditions: for Tau (h) BTK C418S (Act): target residence time for BTK C481S, SPR; for Kd: binding affinity by Surface Plasmon Resonance (SPR)
Chain of BTK C481S (Q06187 whole entry C481S): as the sequence (Q06187 whole entry C481S) above
Outline: as §1

BTK T316A = BTK T316A (Homo sapiens (Human), UniProt Q06187, T316A); test: Binding kinetics measurements (Surface Plasmon Resonance) on BTK T316A; conditions: for Tau (h) BTK T316A (Act): target residence time, SPR; for Kd: binding affinity by Surface Plasmon Resonance (SPR)
Chain of BTK T316A (Q06187 whole entry T316A): as the sequence (Q06187 whole entry C481S) above, with T316A, S481C counted along it
Outline: as §1

BTK T474I = BTK T474I (Homo sapiens (Human), UniProt Q06187, T474I); test: Binding kinetics measurements (Surface Plasmon Resonance) on BTK T474I; conditions: for Tau (h) BTK T474I (Act): target residence time, SPR; for Kd: binding affinity by Surface Plasmon Resonance (SPR)
Chain of BTK T474I (Q06187 whole entry T474I): as the sequence (Q06187 whole entry C481S) above, with T474I, S481C counted along it
Outline: as §1

BTK T474S = BTK T474S (Homo sapiens (Human), UniProt Q06187, T474S); test: Binding kinetics measurements (Surface Plasmon Resonance) on BTK T474S; conditions: for residence time: SPR binding kinetics, BTK T474S, read-out: Tau (h) BTK T474S (Act), target residence time (converted); for Kd: binding affinity by Surface Plasmon Resonance (SPR)
Chain of BTK T474S (Q06187 whole entry T474S): as the sequence (Q06187 whole entry C481S) above, with T474S, S481C counted along it
Outline: as §1

[4] = test system: wt-TMD8 diffuse large B-cell lymphoma cells; test: Cell proliferation assay wt-TMD8 (ATPlite, 120 hours); type: cell-based; conditions: B-cell; wt-TMD8 cells, 120 hours, ATPlite; read-out: IC50 wt-TMD8
Outline: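 Readout is percentage growth from ATPlite 1Step luminescence after 5 days (120 h) compound treatment of wt-TMD8 lymphoma cells (1600/well, RPMI-1640 + 10% FBS). Time-zero signal separates growth inhibition from cell kill; 0.3% DMSO wells without compound define maximal growth.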

Chain of full-length wt-BTK enzyme (Q06187 whole entry): as the sequence (Q06187 whole entry C481S) above, with S481C counted along it

IC50 [1] [nM]	IC50 [2] [nM]	IC50 [3] [nM]	Tau (h) wt-BTK (Act) (wt-BTK) [h]	Tau (h) BTK C418S (Act) (BTK C481S) [h]	Tau (h) BTK T316A (Act) (BTK T316A) [h]	Tau (h) BTK T474I (Act) (BTK T474I) [h]	residence time (BTK T474S) [h]	IC50 [4] [nM]	Kd (wt-BTK) [nM]	Kd (BTK C481S) [nM]	Kd (BTK T316A) [nM]	Kd (BTK T474I)	Kd (BTK T474S) [nM]	Compound	IC50 (REC-1 T474I cell lines) [nM]
< 5	< 5	< 100	2.34	6.60	1.77	3.69	2.56	< 100						Nc1ncc2c3c1c(-c1ccc(C(=O)Nc4cc(C(F)(F)F)ccn4)cc1)nn3[C@@H]1CC[C@H](C1)NC(=O)CCOCC/C=C/2 [Example 169]	< 100
< 5	< 5	100 to 1000	2.36	5.84	6.08	2.11	1.24	< 100	< 5	< 5	< 5	< 2 nM	< 3	C[C@H]1CC(=O)N[C@@H]2CCC[C@H](C2)n2nc(-c3ccc(C(=O)Nc4cc(C(F)(F)F)ccn4)cc3)c3c(N)ncc(c32)/C=C/CCN1C [Example 152]	< 100
< 5	< 5	< 100	>24	4.45	8.86	6.21	4.17	< 100	< 5	< 5	< 5	< 2 nM	< 3	Nc1ncc2c3c1c(-c1ccc(C(=O)Nc4cc(C(F)(F)F)ccn4)cc1)nn3[C@@H]1CCC[C@H](C1)NC(=O)[C@H]1CN(C/C=C/2)CCN1 [Example 141]	< 100
< 5	< 5	< 100	>24	3.51	4.67	4.37	6.74	< 100						N#Cc1ccnc(NC(=O)c2ccc(-c3nn4c5c(cnc(N)c35)/C=C/CCCCCC(=O)N[C@@H]3CCC[C@@H]4C3)cc2)c1 [Example 163]	< 100

The next lines start with the compound.

Compound	IC50 [1] [nM]	IC50 [2] [nM]	IC50 [3] [nM]	Tau (h) wt-BTK (Act) (wt-BTK) [h]	Tau (h) BTK C418S (Act) (BTK C481S) [h]	Tau (h) BTK T316A (Act) (BTK T316A) [h]	Tau (h) BTK T474I (Act) (BTK T474I) [h]	residence time (BTK T474S) [h]	IC50 [4] [nM]	Kd (wt-BTK) [nM]	Kd (BTK C481S) [nM]	Kd (BTK T316A) [nM]	Kd (BTK T474I)	Kd (BTK T474S) [nM]	IC50 (REC-1 T474I cell lines) [nM]
C[C@@H]1CCn2nc(-c3ccc(C(=O)Nc4cc(C(F)(F)F)ccn4)cc3)c3c(N)ncc(c32)/C=C/COCC(=O)N1 [Example 56]	< 5	< 5	< 100	2.24	2.74	1.46		2.62	< 100	< 5	< 5	< 5	10 to 50 nM and < 5 nM	< 3	500 to 10000
COc1ccc(F)cc1C(=O)NCc1ccc(-c2nn3c4c(cnc(N)c24)/C=C/CCCCC(=O)N[C@@H]2CCC[C@@H]3C2)cc1 [Example 51]	< 5	< 5	100 to 1000	1.82	1.92			2.09	< 100	< 5	< 5	< 5	10 to 50 nM and < 5 nM	< 3	100 to 500
Nc1ncc2c3c1c(-c1ccc(C(=O)Nc4ccccn4)cc1)nn3[C@@H]1CCC[C@H](C1)C(=O)NCCCC/C=C\C2 [Example 87b]	< 5	< 5	< 100						< 100	< 5	< 5	< 5	10 to 50 nM and < 5 nM	< 3	100 to 500
C[C@@H]1CCn2nc(-c3ccc(C(=O)Nc4cc(C(F)(F)F)ccn4)cc3)c3c(N)ncc(c32)/C=C/CCCC(=O)N1 [Example 76]	< 5	< 5	100 to 1000	0.97	1.63			1.85	< 100	< 5	< 5	< 5	10 to 50 nM and < 5 nM	< 3	500 to 10000
C[C@@H]1CC(=O)N[C@@H]2CCC[C@H](C2)n2nc(-c3ccc(C(=O)Nc4cc(C(F)(F)F)ccn4)cc3)c3c(N)ncc(c32)/C=C/CN1C [Example 44]	< 5	< 5	< 100	2.32		2.47	0.87	3.27	< 100	< 5	< 5	< 5	< 2 nM	< 3	< 100
Nc1ncc2c3c1c(-c1ccc(C(=O)Nc4ccccn4)cc1)nn3C1CCC[C@H](C1)NC(=O)CCCCC/C=C/2 [Example 24]	< 5	< 5	< 100	4.78	10.68	2.66	1.26	3.19	< 100						< 100
Nc1ncc2c3c1c(-c1ccc(C(=O)Nc4cc(C(F)(F)F)ccn4)cc1)nn3[C@@H]1CCC[C@H](C1)NC(=O)CCNC/C=C/2 [Example 21]	< 5	< 5	< 100	4.34	7.53	3.89		3.59	< 100	< 5	< 5	< 5	< 2 nM	< 3	100 to 500
